Results: patent publication US6231885A, “Composition for controlled and sustained transdermal administration” (Permatec Technologie AG, priority 1997, dated 2001)
“Also recorded” adds a separate entry of the source.

Experiment: In vitro enhancer release, paddle over disk method (apparatus 5, USP 23)
Assay type: physicochemical
Details: in words, in vitro and in vivo results
Procedure: The release of lauric acid and oleic acid was analyzed using paddle over disk method (apparatus 5, USP 23, Drug Release 724).
FIG. 1 schematically shown the apparatus mentioned before. In these experiments we have determined the release profiles of lauric acid and oleic acid from transdermal patches, measuring the remaining drug (by means of HPLC techniques) in samples taken at different time points.
The examples used were: Example 1; Example 2 and Example 3.
The dissolution conditions used were: paddle speed: 50 rpm; temperature: 32° C.; dissolution medium: aqueous solution of sodium dodecyl sulphate 0.3%; volume: 500 ml; sample program: 0.5; 1.0; 2.0; 4.0; 8.0 and 24 h.

Compound	Release from the adhesive matrix	Release from the adhesive matrix (listed as lauric acid)
CCCCCCCC/C=C\CCCCCCCC(=O)O [oleic acid]	slow release; also recorded: delivered in small amount and is prone to remain in the adhesive monolithic matrix	–
CCCCCCCCCCCC(=O)O [Lauric acid]	rapid release	a great proportion of the amount of lauric acid is delivered at early times
